Type in all cases: cell-based
The test system of one experiment is A549 CSC. Put plainly: Cancer stem cells, Cell Titer-Glo 72 hours (Test Example 3). The following applies: Homo sapiens.
The test system of a further experiment is ACHN CSC. The description is as above. As to conditions: Homo sapiens, ACHN, 72 h.
The next experiment deals with FaDu CSC. Described as above. As to conditions: Homo sapiens, FaDu, 72 h.
In the next experiment the test system is ACHN. Description: Bulk cancer cells, Cell Titer-Glo 72 hours (Test Example 2). As to conditions: Homo sapiens, ACHN, 72 h. As for the experimental part:
(§1) Tubes of 3× drug (60 uM in 500 uL complete media) were prepared from 5 mM stock solutions in DMSO. […] To treat cells, 50 uL of drug from the dilution plate was removed and added to the cell plates. […] Cells were harvested 72 hours after drug addition using Cell Titer-Glo (Promega) and luminescence measured on a plate reader.
On the technique in general: ATP-based viability assays read luminescence as a measure of living cells.

The next experiment deals with A549. Described as above. The following applies: Homo sapiens. As for the experimental part: as §1
The test system of another experiment is FaDu. Described as above. As to conditions: Homo sapiens. As for the experimental part: as §1

As usually defined, the IC50 is the midpoint of a concentration-inhibition curve. Read a high IC50 as lower potency. `O=C1Nc2ccc(-c3csc(-c4ccccc4)n3)cc2/C1=C/c1ncc[nH]1` [Example 150]: the half-maximal inhibitory concentration (IC50) with A549 CSC was determined as 2.31 µM; in the experiment on ACHN CSC, 2.91 µM; with FaDu CSC, 2.5 µM; with ACHN, 1.44 µM; in the experiment on A549 it was 17.2 µM; in the experiment with FaDu it was 7.57 µM.

As to `O=C1Nc2ccc(-c3csc(-c4ccncc4)n3)cc2/C1=C/c1cnc[nH]1` [Example 152], the concentration for half-maximal inhibition (IC50) with A549 CSC was found to be 7.18 µM; in the experiment with ACHN CSC it was 28.9 µM; in the experiment with FaDu CSC it was 22.1 µM; in the experiment on ACHN, 3.61 µM; in the experiment on A549, 9.19 µM; in the experiment with FaDu it was 1.66 µM.

On to `O=C1Nc2ccc(-c3csc(C4CCNCC4)n3)cc2/C1=C/c1cc2c([nH]1)CCCC2` [Example 157], for which the IC50 worked out at 22.1 µM with A549 CSC; 2.68 µM with ACHN CSC; 12 µM in the experiment on FaDu CSC; 18.8 µM in the experiment on ACHN; 9.39 µM with A549; 21.1 µM in the experiment with FaDu.

Regarding `CCN(CC)CCNC(=O)c1cc(C)c(/C=C2\C(=O)Nc3ccc(-c4csc(-c5ccccc5)n4)cc32)[nH]1` [Example 165], the IC50 came to 26.7 µM in the experiment with A549 CSC; 4.04 µM with ACHN CSC; 3.13 µM with FaDu CSC; 14.9 µM with ACHN; 4 µM in the experiment on A549; 11.4 µM in the experiment on FaDu.

For `CCN(CC)CCNC(=O)CCc1c(C)[nH]c(/C=C2\C(=O)Nc3ccc(-c4csc(-c5ccncc5)n4)cc32)c1C` [Example 167], the concentration for half-maximal inhibition (IC50) was found to be 35.7 µM in the experiment with A549 CSC; 1.24 µM in the experiment on ACHN CSC; 4.57 µM in the experiment on FaDu CSC; 7.42 µM in the experiment on ACHN; 10.1 µM in the experiment with A549; 28 µM in the experiment on FaDu.

`O=C1Nc2ccc(-c3csc(C4CCNCC4)n3)cc2/C1=C/c1cc2ccccc2[nH]1` [Example 168]: the IC50 was 2.04 µM in the experiment on A549 CSC; 0.1 µM in the experiment with ACHN CSC; 0.76 µM in the experiment with FaDu CSC; 4.12 µM with ACHN; 5.55 µM in the experiment with A549; 5.16 µM in the experiment on FaDu.

In the case of `CCN(CC)CCNC(=O)c1c(C)[nH]c(/C=C2\C(=O)Nc3ccc(-c4cnc5cccnn45)cc32)c1C` [Example 179], the IC50 is 6.64 µM in the experiment on A549 CSC; 2.73 µM in the experiment with ACHN CSC; 0.06 µM with FaDu CSC; 3.64 µM in the experiment with ACHN; 3.66 µM in the experiment with A549; 1.74 µM in the experiment on FaDu.

As to `CCN(CC)CCNC(=O)c1c(C)[nH]c(/C=C2\C(=O)Nc3ccc(-c4cnccn4)cc32)c1C` [Example 180], the IC50 in the experiment with A549 CSC came out at 13.2 µM; in the experiment on ACHN CSC, 2.65 µM; in the experiment with FaDu CSC, 0.23 µM; in the experiment on ACHN, 10.1 µM; with A549, 10.6 µM; with FaDu, 6.62 µM.

For `CCN(CC)CCNC(=O)c1c(C)[nH]c(/C=C2\C(=O)Nc3ccc(-c4cnc5cn[nH]c5c4)cc32)c1C` [Example 181], the IC50 in the experiment on A549 CSC amounted to 26.4 µM; with ACHN CSC, 10.8 µM; in the experiment on FaDu CSC, 0.16 µM; in the experiment on ACHN, 2.74 µM; with A549, 3.24 µM; in the experiment with FaDu, 1.49 µM.

Consider `CCN(CC)CCNC(=O)c1c(C)[nH]c(/C=C2\C(=O)Nc3ccc(-c4ncccn4)cc32)c1C` [Example 182], for which the IC50 amounted to 18 µM in the experiment on A549 CSC; 1.15 µM in the experiment with ACHN CSC; 0.09 µM with FaDu CSC; 3.5 µM in the experiment with ACHN; 15.4 µM with A549; 6.02 µM in the experiment with FaDu.

As for `CCN(CC)CCNC(=O)c1c(C)[nH]c(/C=C2\C(=O)Nc3ccc(-c4ccccn4)cc32)c1C` [Example 183], the IC50 in the experiment with A549 CSC was 5.45 µM; with ACHN CSC, 1.06 µM; in the experiment on FaDu CSC, 0.18 µM; in the experiment with ACHN, 2.26 µM; in the experiment on A549, 7.23 µM; in the experiment with FaDu it was 2.56 µM.

For `CCN(CC)CCNC(=O)c1c(C)[nH]c(/C=C2\C(=O)Nc3ccc(-c4ccc(C)cn4)cc32)c1C` [Example 184], the half-inhibitory concentration (IC50) with A549 CSC was 3.38 µM; in the experiment on ACHN CSC, 1.16 µM; with FaDu CSC, 0.22 µM; with ACHN, 2.92 µM; with A549, 6.51 µM; in the experiment with FaDu, 3.05 µM.

On to `CCN(CC)CCNC(=O)c1c(C)[nH]c(/C=C2\C(=O)Nc3ccc(-c4cnc5ccccc5n4)cc32)c1C` [Example 185], for which the concentration for half-maximal inhibition (IC50) with A549 CSC came to 42.3 µM; in the experiment on ACHN CSC, 5.59 µM; in the experiment with FaDu CSC, 0.04 µM; with ACHN, 5.73 µM; with A549 it was 8.13 µM; in the experiment on FaDu, 2.66 µM.

Take `CCN(CC)CCNC(=O)c1c(C)[nH]c(/C=C2\C(=O)Nc3ccc(-c4nccc5ccccc45)cc32)c1C` [Example 187]: the 50% inhibitory concentration (IC50) turned out to be 13.9 µM in the experiment with A549 CSC; 0.71 µM in the experiment with ACHN CSC; 0.03 µM with FaDu CSC; 5.05 µM in the experiment on ACHN; 3.18 µM with A549; 2.13 µM in the experiment on FaDu.

As to `CCN(CC)CCNC(=O)c1c(C)[nH]c(/C=C2\C(=O)Nc3ccc(-c4ccc(OC)cn4)cc32)c1C` [Example 188], the IC50 worked out at 8.89 µM in the experiment with A549 CSC; 1.08 µM in the experiment with ACHN CSC; 0.16 µM in the experiment on FaDu CSC; 6.44 µM with ACHN; 10.8 µM in the experiment on A549; 7.01 µM in the experiment on FaDu.

`CCN(CC)CCNC(=O)c1c(C)[nH]c(/C=C2\C(=O)Nc3ccc(-c4ncccc4OC)cc32)c1C` [Example 189]: the 50% inhibitory concentration (IC50) with A549 CSC worked out at 6.84 µM; in the experiment with ACHN CSC, 1.41 µM; with FaDu CSC, 0.07 µM; with ACHN it was 7.14 µM; in the experiment on A549 it was 7.48 µM; in the experiment on FaDu, 2.63 µM.

With `CCN(CC)CCNC(=O)c1c(C)[nH]c(/C=C2\C(=O)Nc3ccc(-c4cccc(OC)n4)cc32)c1C` [Example 190], the IC50 in the experiment on A549 CSC worked out at 2.24 µM; in the experiment with ACHN CSC, 0.24 µM; in the experiment on FaDu CSC it was 0.19 µM; in the experiment with ACHN, 1.96 µM; in the experiment on A549, 2.79 µM; in the experiment with FaDu, 1.76 µM.

As to `CCN(CC)CCNC(=O)c1c(C)[nH]c(/C=C2\C(=O)Nc3ccc(-c4nc5ccccc5s4)cc32)c1C` [Example 191], the concentration for half-maximal inhibition (IC50) was found to be 4.13 µM in the experiment on A549 CSC; 0.98 µM in the experiment with ACHN CSC; 5.97 µM with FaDu CSC; 9.53 µM in the experiment with ACHN; 3.73 µM in the experiment with A549; 4.93 µM in the experiment on FaDu.

For `CCN(CC)CCNC(=O)c1c(C)[nH]c(/C=C2\C(=O)Nc3ccc(-c4cnc5ccccn45)cc32)c1C` [Example 192], the IC50 was determined as 17.2 µM in the experiment with A549 CSC; 3.44 µM in the experiment on ACHN CSC; 17.6 µM in the experiment on FaDu CSC; 4.65 µM in the experiment on ACHN; 5.86 µM in the experiment on A549; 4.63 µM in the experiment with FaDu.

In the case of `CCN(CC)CCNC(=O)c1c(C)[nH]c(/C=C2\C(=O)Nc3ccc(-c4ccc(-c5ccccc5)nc4)cc32)c1C` [Example 194], the IC50 came out at 6.45 µM in the experiment with A549 CSC; 0.63 µM in the experiment with ACHN CSC; 3.96 µM in the experiment on FaDu CSC; 7.41 µM in the experiment with ACHN; 2.3 µM in the experiment on A549; 4.92 µM with FaDu.

For `CCN(CC)CCNC(=O)c1c(C)[nH]c(/C=C2\C(=O)Nc3ccc(-c4csc(-n5cccn5)n4)cc32)c1C` [Example 195], the half-inhibitory concentration (IC50) in the experiment on A549 CSC came out at 6.64 µM; in the experiment on ACHN CSC, 0.62 µM; in the experiment with FaDu CSC, 5.11 µM; with ACHN, 7.88 µM; in the experiment with A549 it was 3.71 µM; in the experiment with FaDu, 4.68 µM.

As to `CCN(CC)CCNC(=O)c1c(C)[nH]c(/C=C2\C(=O)Nc3ccc(-c4csc(-n5ccnc5)n4)cc32)c1C` [Example 196], the 50% inhibitory concentration (IC50) with A549 CSC came out at 18.8 µM; in the experiment on ACHN CSC, 2.99 µM; in the experiment with FaDu CSC it was 21.7 µM; in the experiment on ACHN, 9.57 µM; in the experiment with A549, 6.16 µM; in the experiment on FaDu, 5.57 µM.

Turning to `CCN(CC)CCNC(=O)c1c(C)[nH]c(/C=C2\C(=O)Nc3ccc(-c4cc(-c5ccccc5)ccn4)cc32)c1C` [Example 198], the IC50 in the experiment on A549 CSC amounted to 2 µM; in the experiment on ACHN CSC, 0.9 µM; in the experiment on FaDu CSC, 9.67 µM; in the experiment with ACHN, 2.41 µM; with A549, 1.5 µM; in the experiment on FaDu, 2.58 µM.

With `CCN(CC)CCNC(=O)c1c(C)[nH]c(/C=C2\C(=O)Nc3ccc(-c4cnsc4)cc32)c1C` [Example 200], the 50% inhibitory concentration (IC50) was determined as 6.66 µM in the experiment with A549 CSC; 0.64 µM with ACHN CSC; 3.42 µM in the experiment with FaDu CSC; 4.58 µM with ACHN; 3.79 µM in the experiment with A549; 3.17 µM with FaDu.

For `CCN(CC)CCNC(=O)c1c(C)[nH]c(/C=C2\C(=O)Nc3ccc(-c4ncccc4C)cc32)c1C` [Example 203], the 50% inhibitory concentration (IC50) with A549 CSC was 13.1 µM; in the experiment with ACHN CSC, 1.88 µM; in the experiment with FaDu CSC, 20 µM; in the experiment with ACHN, 4.15 µM; with A549 it was 4.14 µM; with FaDu, 7.67 µM.

In the case of `CCN(CC)CCNC(=O)c1c(C)[nH]c(/C=C2\C(=O)Nc3ccc(-c4cnc5ccccc5c4)cc32)c1C` [Example 204], the 50% inhibitory concentration (IC50) is 6.83 µM with A549 CSC; 0.62 µM with ACHN CSC; 5.47 µM in the experiment with FaDu CSC; 6.39 µM in the experiment with ACHN; 3.85 µM with A549; 4.59 µM in the experiment on FaDu.

In the case of `CCN(CC)CCNC(=O)c1c(C)[nH]c(/C=C2\C(=O)Nc3ccc(-c4cccc(C#N)c4C)cc32)c1C` [Example 205], the IC50 with A549 CSC was determined as 4.48 µM; with ACHN CSC, 0.57 µM; with FaDu CSC it was 4.73 µM; in the experiment with ACHN, 5.23 µM; in the experiment on A549 it was 2.8 µM; in the experiment with FaDu, 4.27 µM.
